Columns and labels:
[1] = test system: human mesenchymal stem cells (hMSCs); test: Macromer extract dilution cytocompatibility test (modified ISO 10993-5, Live/Dead); conditions: undiluted (1X) extract from 10 minute media incubation with macromer, 24 hour culture
Protocol: Bone marrow-derived human mesenchymal stem cells (hMSCs) were obtained as Passage 1 in a cryovial from the Center for the Preparation and Distribution of Adult Stem Cells. Cells were cultured in growth media containing 16.5% fetal bovine serum (Atlanta Biologicals), 1% L-glutamine (Life Technologies) and Minimum Essential Media α (MEM α, Life Technologies) to about 80% confluency and utilized at Passages 5 and 6. Cells were trypsinized with 0.25% Trypsin-EDTA (Life Technologies) and seeded at a density of about 40,000 cells/cm^2 in a 96 well plate and allowed to adhere for about 24 hours. On the following day, about 100 μl of each macromer was incubated in about 300 μl growth media supplemented with 1 vol. % penicillin-streptomycin (Life Technologies) in a 48 well plate to mimic the ratio of organic to aqueous phase in the HIPE. After about 10 minute incubation at about 37° C., 5% CO2, the supernatant above the macromers was aspirated and diluted to about 10× and about 100× solutions. […] Extracted and diluted media (1, 10, and 100×) was then added to cells and cultured for an additional time, generally about 24 hours. Viability was assessed utilizing the Live/Dead® assay kit (registration with Molecular Probes Corporation, Eugene, Oreg.). The analysis used a plate reader (Tecan Infinite M200Pro) with excitation/emission wavelengths of 485/528 and 528/620 for calcein-AM and ethidium homodimer-1 dyes, respectively. Viability was normalized to cells on tissue culture polystyrene.

[2] = previously described PFDMA macromer; cited from earlier work

Molecule	hMSC viability after exposure to extract media [1]	Macromer viscosity [2]
C=C(C)C(=O)OCCCCOC(=O)C(=C)C [BDMA, butane diol dimethacrylate]	less	
C=C(C)C(=O)OCCOC(=O)C(=C)C [EGDMA, ethylene glycol dimethacrylate]	less	
propylene fumarate dimethacrylate [PFDMA]	> 80%	about 125 cP
